Test results as given in US10670605B2, “Cysteine reactive probes and uses thereof” (The Scripps Research Institute, priority 2015, dated 2020).

Assays:
Experiment in all cases: Competitive isoTOP-ABPP in situ (fragment-treated cells)
Format in all cases: cell-based
[1] = molecular target: T1, cysteines in MDA-MB-231 and Ramos cells (Homo sapiens, UniProt Q86UY8)
T1 sequence (Q86UY8 1-548): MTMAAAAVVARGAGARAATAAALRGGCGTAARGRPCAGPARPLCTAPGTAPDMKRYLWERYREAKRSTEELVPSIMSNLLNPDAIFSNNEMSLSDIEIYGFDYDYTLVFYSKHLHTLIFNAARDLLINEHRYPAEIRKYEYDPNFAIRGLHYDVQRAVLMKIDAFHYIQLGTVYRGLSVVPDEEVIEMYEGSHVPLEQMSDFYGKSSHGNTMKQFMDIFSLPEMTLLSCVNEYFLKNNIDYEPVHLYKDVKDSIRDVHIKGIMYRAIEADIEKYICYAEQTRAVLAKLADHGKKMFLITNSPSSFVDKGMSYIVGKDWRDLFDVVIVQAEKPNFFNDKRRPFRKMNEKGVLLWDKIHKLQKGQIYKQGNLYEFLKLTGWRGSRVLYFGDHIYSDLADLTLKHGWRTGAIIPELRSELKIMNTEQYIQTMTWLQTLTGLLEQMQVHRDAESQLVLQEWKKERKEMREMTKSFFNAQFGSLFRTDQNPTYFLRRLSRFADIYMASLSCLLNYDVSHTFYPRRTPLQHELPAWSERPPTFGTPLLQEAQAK

[2] = molecular target: T2, cysteines in MDA-MB-231 and Ramos cells (Homo sapiens, UniProt Q9NY27)
T2 sequence (Q9NY27 1-417): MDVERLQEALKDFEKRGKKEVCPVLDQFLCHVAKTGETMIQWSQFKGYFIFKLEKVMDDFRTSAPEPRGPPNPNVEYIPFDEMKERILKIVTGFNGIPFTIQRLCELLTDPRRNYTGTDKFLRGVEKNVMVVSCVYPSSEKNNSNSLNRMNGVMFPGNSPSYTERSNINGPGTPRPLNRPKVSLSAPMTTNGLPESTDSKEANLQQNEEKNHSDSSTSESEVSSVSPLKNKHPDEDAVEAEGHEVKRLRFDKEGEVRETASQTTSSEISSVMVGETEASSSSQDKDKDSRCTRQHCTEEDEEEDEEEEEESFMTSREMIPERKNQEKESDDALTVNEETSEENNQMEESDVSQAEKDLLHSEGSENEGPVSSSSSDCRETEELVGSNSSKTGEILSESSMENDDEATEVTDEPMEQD

[3] = molecular target: T3, cysteines in MDA-MB-231 and Ramos cells (Homo sapiens, UniProt Q9NQ88)
T3 sequence (Q9NQ88 1-270): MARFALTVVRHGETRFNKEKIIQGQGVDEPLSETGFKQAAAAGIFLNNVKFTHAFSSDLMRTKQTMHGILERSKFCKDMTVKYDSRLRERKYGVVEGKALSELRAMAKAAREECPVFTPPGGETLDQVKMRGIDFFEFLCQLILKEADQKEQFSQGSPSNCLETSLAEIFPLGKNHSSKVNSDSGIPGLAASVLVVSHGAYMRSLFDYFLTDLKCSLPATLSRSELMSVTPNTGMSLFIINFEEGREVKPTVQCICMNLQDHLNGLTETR

[4] = molecular target: cysteines in MDA-MB-231 and Ramos cells (Homo sapiens, UniProt P27708); details: 200 μM, insitu
[5] = molecular target: T4, cysteines in MDA-MB-231 and Ramos cells (Homo sapiens, UniProt Q8WV74)
T4 sequence (Q8WV74 1-236): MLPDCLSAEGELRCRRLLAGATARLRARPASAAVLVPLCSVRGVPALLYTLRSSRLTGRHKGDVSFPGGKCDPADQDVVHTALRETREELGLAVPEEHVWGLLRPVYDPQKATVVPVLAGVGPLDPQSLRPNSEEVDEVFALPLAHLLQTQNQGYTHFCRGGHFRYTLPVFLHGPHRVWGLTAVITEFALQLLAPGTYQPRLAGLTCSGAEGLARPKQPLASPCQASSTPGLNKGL

[6] = molecular target: cysteines in MDA-MB-231 and Ramos cells (Homo sapiens, UniProt P07858)
[7] = molecular target: T5, cysteines in MDA-MB-231 and Ramos cells (Homo sapiens, UniProt Q13158); details: 200 μM, insitu, 231
T5 sequence (Q13158 1-208): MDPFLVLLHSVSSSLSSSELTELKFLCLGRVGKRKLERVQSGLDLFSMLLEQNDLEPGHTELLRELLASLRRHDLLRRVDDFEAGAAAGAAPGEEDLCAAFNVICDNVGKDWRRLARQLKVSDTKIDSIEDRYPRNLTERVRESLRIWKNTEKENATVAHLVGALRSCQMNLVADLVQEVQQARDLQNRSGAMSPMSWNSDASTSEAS

[8] = molecular target: T6, cysteines in MDA-MB-231 and Ramos cells (Homo sapiens, UniProt Q96F86)
T6 sequence (Q96F86 1-508): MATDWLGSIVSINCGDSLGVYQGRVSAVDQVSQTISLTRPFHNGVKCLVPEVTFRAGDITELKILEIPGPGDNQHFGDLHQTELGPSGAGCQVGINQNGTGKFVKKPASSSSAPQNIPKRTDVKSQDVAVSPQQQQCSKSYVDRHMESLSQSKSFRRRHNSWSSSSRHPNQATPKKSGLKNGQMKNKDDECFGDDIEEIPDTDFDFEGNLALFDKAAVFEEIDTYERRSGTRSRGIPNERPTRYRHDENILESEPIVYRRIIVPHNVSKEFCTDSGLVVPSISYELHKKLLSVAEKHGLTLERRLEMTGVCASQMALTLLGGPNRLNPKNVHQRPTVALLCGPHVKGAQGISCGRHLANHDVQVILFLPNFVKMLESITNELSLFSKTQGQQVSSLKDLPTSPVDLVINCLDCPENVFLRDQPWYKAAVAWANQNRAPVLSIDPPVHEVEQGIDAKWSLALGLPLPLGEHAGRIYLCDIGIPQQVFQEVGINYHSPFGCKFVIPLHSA

[9] = molecular target: cysteines in MDA-MB-231 and Ramos cells (Homo sapiens, UniProt Q15118)
cysteines in MDA-MB-231 and Ramos cells (Homo sapiens, UniProt Q15118), sequence (Q15118 29-436): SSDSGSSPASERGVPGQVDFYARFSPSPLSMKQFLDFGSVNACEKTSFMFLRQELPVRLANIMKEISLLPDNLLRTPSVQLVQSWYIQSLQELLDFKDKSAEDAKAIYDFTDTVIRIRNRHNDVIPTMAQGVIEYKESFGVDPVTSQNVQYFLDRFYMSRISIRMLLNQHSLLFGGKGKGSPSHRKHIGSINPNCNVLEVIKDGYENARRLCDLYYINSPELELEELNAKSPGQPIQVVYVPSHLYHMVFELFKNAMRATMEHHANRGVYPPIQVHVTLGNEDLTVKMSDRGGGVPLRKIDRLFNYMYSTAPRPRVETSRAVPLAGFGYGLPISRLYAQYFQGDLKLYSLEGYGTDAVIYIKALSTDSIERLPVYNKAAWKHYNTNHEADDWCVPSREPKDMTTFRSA

cysteines in MDA-MB-231 and Ramos cells (Homo sapiens, UniProt P27708), sequence (P27708 whole entry): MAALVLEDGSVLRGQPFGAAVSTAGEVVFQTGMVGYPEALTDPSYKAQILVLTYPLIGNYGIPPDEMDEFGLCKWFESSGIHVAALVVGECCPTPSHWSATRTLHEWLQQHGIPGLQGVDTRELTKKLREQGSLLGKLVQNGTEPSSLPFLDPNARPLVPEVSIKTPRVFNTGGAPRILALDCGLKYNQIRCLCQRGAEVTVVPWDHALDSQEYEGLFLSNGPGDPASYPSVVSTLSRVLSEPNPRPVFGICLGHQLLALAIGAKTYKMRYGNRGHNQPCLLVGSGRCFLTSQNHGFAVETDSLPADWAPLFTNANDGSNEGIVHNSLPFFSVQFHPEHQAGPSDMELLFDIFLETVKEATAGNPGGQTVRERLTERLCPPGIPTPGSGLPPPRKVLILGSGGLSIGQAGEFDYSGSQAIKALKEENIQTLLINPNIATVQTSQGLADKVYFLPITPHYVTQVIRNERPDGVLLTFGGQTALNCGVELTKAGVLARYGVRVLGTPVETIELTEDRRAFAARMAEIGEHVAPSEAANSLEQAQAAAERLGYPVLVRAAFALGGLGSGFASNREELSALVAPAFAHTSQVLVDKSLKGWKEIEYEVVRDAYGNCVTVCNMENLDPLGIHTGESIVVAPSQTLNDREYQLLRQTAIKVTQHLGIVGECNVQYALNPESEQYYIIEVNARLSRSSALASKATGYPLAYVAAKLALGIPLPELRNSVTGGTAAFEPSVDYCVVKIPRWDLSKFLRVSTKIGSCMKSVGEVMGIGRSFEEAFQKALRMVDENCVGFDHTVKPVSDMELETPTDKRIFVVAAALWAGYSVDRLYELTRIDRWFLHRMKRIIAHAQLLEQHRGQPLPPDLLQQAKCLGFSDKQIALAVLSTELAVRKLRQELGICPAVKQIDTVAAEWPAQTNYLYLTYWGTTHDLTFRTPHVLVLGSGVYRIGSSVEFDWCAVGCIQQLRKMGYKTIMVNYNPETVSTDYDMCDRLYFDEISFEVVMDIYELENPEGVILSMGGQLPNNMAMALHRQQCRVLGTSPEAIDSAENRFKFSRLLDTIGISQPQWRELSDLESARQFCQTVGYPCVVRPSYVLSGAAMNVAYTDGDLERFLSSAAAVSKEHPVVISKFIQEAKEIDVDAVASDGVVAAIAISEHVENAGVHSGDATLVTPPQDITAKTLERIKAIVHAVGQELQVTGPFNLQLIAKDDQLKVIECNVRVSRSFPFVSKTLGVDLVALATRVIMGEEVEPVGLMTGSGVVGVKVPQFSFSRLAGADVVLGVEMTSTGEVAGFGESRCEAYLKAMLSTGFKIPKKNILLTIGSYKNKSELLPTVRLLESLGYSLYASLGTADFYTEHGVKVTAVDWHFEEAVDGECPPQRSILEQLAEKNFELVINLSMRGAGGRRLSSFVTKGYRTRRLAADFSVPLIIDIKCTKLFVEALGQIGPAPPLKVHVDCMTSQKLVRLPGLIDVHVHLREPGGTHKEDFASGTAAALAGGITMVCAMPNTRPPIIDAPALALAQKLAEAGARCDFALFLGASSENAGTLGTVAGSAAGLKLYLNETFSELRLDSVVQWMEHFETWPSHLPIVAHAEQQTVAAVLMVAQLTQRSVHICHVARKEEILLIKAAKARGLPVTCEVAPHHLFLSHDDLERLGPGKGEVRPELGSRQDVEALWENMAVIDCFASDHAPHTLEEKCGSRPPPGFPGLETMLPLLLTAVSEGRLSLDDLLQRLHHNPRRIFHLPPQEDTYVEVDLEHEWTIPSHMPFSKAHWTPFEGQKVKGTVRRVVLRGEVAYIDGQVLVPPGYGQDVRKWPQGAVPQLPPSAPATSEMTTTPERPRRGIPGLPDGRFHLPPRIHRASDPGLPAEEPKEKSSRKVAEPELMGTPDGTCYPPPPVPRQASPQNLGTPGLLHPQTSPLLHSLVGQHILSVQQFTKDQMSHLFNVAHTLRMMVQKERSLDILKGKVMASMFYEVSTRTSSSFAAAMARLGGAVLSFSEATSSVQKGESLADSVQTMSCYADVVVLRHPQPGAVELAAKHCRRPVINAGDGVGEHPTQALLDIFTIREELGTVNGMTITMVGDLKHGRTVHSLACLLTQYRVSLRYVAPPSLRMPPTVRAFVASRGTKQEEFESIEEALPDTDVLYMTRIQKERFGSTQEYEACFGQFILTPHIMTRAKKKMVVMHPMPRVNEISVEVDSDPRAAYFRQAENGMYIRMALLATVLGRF

Structure (SMILES): Cc1ccc(C=C(C#N)C(=O)NCCN2CCOCC2)cc1 [compound 41]
- isoTOP-ABPP ratio Q86UY8_C276 ([1]; 200 μM, insitu, 231): 1.7
- isoTOP-ABPP ratio Q9NY27_C22 ([2]; 200 μM, insitu, 231): 0.8
- isoTOP-ABPP ratio Q9NQ88_C114 ([3]; 200 μM, insitu, 231): 0.6
- isoTOP-ABPP ratio P27708_C73 [4]; 231: 0.7
- isoTOP-ABPP ratio Q8WV74_C207 ([5]; 200 μM, insitu, 231): 0.9
- isoTOP-ABPP ratio P07858_C211 ([6]; 200 μM, insitu, 231): 0.4

Structure (SMILES): O=C(CCl)NC(=O)NC12CC3CC(CC(C3)C1)C2 [compound 12]
- isoTOP-ABPP ratio Q86UY8_C276 ([1]; 200 μM, insitu, 231): 20.0
- isoTOP-ABPP ratio Q9NY27_C22 ([2]; 200 μM, insitu, 231): 20.0

Structure (SMILES): O=C(CCl)NCCc1c[nH]c2ccccc12 [compound 13]
- isoTOP-ABPP ratio Q86UY8_C276 ([1]; 200 μM, insitu, 231): 1.5
- isoTOP-ABPP ratio Q9NY27_C22 ([2]; 200 μM, insitu, ramos): 1.5
- isoTOP-ABPP ratio Q9NQ88_C114 ([3]; 200 μM, insitu, 231): 1.1
- isoTOP-ABPP ratio Q9NQ88_C161 ([3]; 200 μM, insitu, 231): 1.1
- isoTOP-ABPP ratio Q9NQ88_C114 ([3]; 200 μM, insitu, ramos): 1.2
- isoTOP-ABPP ratio Q9NQ88_C161 ([3]; 200 μM, insitu, ramos): 1.5
- isoTOP-ABPP ratio, cysteine P27708_C73 ([4]; ramos): 5.0
- isoTOP-ABPP ratio, cysteine Q8WV74_C207 ([5]; 200 μM, insitu, 231): 13.1
- isoTOP-ABPP ratio P07858_C211 ([6]; 200 μM, insitu, 231): 1.6
- isoTOP-ABPP ratio, cysteine Q13158_C98 [7]: 1.6
- isoTOP-ABPP ratio Q96F86_C413 ([8]; 200 μM, insitu, 231): 1.6
- isoTOP-ABPP ratio Q96F86_C413 ([8]; 200 μM, insitu, ramos): 2.0
- isoTOP-ABPP ratio Q15118_C71 ([9]; 200 μM, insitu, 231): 1.6

Structure (SMILES): O=C(CCl)N1CCC(Cc2ccccc2)CC1 [compound 9]
- isoTOP-ABPP reactivity Q9NQ88_C114 TIGAR ([3]; 200 μM, insitu, 231): 1.9
- isoTOP-ABPP reactivity Q9NQ88_C161 TIGAR ([3]; 200 μM, insitu, 231): 2.6
- isoTOP-ABPP reactivity P07858_C211 CTSB ([6]; 200 μM, insitu, 231): 5.0

Structure (SMILES): COc1ccc(C2CC(c3cccs3)=NN2C(=O)CCl)cc1 (stereo not drawn) [compound 4]
- isoTOP-ABPP reactivity Q8WV74_C207 NUDT8 ([5]; 100 μM in situ 231): 20.0
- isoTOP-ABPP reactivity P07858_C211 CTSB ([6]; 100 μM in situ 231): 2.3
- isoTOP-ABPP reactivity Q96F86_C413 EDC3 ([8]; 100 μM in situ 231): 20.0
- isoTOP-ABPP reactivity Q15118_C71 PDK1 ([9]; 100 μM in situ 231): 20.0

Structure (SMILES): O=C(CCl)NC12CC3CC(CC(C3)C1)C2 [compound 21]
- isoTOP-ABPP ratio Q86UY8_C276 ([1]; 200 μM, insitu, 231): 1.8
- isoTOP-ABPP ratio Q9NQ88_C114 ([3]; 200 μM, insitu, 231): 0.9
- isoTOP-ABPP ratio Q9NQ88_C161 ([3]; 200 μM, insitu, 231): 1.0
- isoTOP-ABPP ratio, cysteine P27708_C73 [4]; 231: 0.6
- isoTOP-ABPP ratio P07858_C211 ([6]; 200 μM, insitu, 231): 2.6
- isoTOP-ABPP ratio Q96F86_C413 ([8]; 200 μM, insitu, 231): 0.8
- isoTOP-ABPP ratio Q15118_C71 ([9]; 200 μM, insitu, 231): 1.7

Structure (SMILES): O=C(CCl)Nc1cccc2ncccc12 [compound 51]
- isoTOP-ABPP ratio Q86UY8_C276 ([1]; 200 μM, insitu, 231): 1.2
- isoTOP-ABPP ratio Q9NY27_C22 ([2]; 200 μM, insitu, 231): 2.2
- isoTOP-ABPP ratio Q96F86_C413 ([8]; 200 μM, insitu, 231): 20.0

Structure (SMILES): Cn1cc(S(=O)(=O)N2CCOCC2)cc1C(=O)NC(=O)CCl [compound 11]
- isoTOP-ABPP ratio Q86UY8_C276 ([1]; 100 μM in situ 231): 1.4
- isoTOP-ABPP ratio Q9NY27_C22 ([2]; 100 μM in situ 231): 2.3
- isoTOP-ABPP ratio Q9NQ88_C114 ([3]; 100 μM in situ 231): 0.8
- isoTOP-ABPP ratio Q9NQ88_C161 ([3]; 100 μM in situ 231): 0.9
- isoTOP-ABPP ratio P07858_C211 ([6]; 100 μM in situ 231): 1.1
- isoTOP-ABPP ratio Q96F86_C413 ([8]; 100 μM in situ 231): 20.0
- isoTOP-ABPP ratio Q15118_C71 ([9]; 100 μM in situ 231): 0.6
